ChEMBL document CHEMBL3779875, “Cytotoxic Evaluation against Breast Cancer Cells of Isoliquiritigenin Analogues from Spatholobus suberectus and Their Synthetic Derivatives” (J Nat Prod, 2016)
Active and inactive are the calls of the source. The rule behind the calls is not given here.

Assays:
MDA-MB-231 = assay: Cytotoxicity against human MDA-MB-231 cells assessed as reduction in cell viability after 72 hrs by MTT assay; type: functional, cell-based; settings: for IC50: MDA-MB-231, 72 h
MCF7 = assay: Cytotoxicity against human MCF7 cells assessed as reduction in cell viability after 72 hrs by MTT assay; type: functional, cell-based; settings: for IC50: MCF7, 72 h

For O=C(/C=C/c1ccc(O)cc1)c1ccc(O)cc1 [4,4'-DIHYDROXYCHALCONE], the IC50 (MDA-MB-231) was over 10 µM and the IC50 (MCF7) was over 10 µM.

O=C(CCc1ccc(O)cc1)c1ccc(O)cc1O [DAVIDIGENIN] showed an IC50 (MDA-MB-231) of over 10 µM and an IC50 (MCF7) of over 10 µM.

With COc1ccc(C(=O)CCc2ccccc2)c(O)c1 the IC50 (MDA-MB-231) was over 10 µM and the IC50 (MCF7) was over 10 µM.

For COc1cc(/C=C/C(=O)c2ccc(OC)c(OC)c2OC)cc(OC)c1OC, the IC50 (MDA-MB-231) was 7.4 µM and the IC50 (MCF7) was over 10 µM.

Work on COc1ccc(/C=C/C(=O)c2ccc(OC)cc2OC)cc1 [METOCHALCONE] yielded an IC50 (MDA-MB-231) of 7.9 µM and an IC50 (MCF7) of 1.5 µM.

With O=C(/C=C/c1ccccc1)c1ccc(O)cc1O [2',4'-DIHYDROXYCHALCONE] the IC50 (MDA-MB-231) was over 10 µM and the IC50 (MCF7) was over 10 µM.

In the case of CC(=O)O[C@H]1C(=O)[C@@]2(C)[C@H]([C@H](OC(=O)c3ccccc3)[C@]3(O)C[C@H](OC(=O)[C@H](O)[C@@H](NC(=O)c4ccccc4)c4ccccc4)C(C)=C1C3(C)C)[C@]1(OC(C)=O)CO[C@@H]1C[C@@H]2O [PACLITAXEL], the IC50 (MDA-MB-231) is reported as 0.0039 µM.

Molecule O=C(CCc1ccc(O)cc1)c1c(O)cc(O)cc1O [PHLORETIN] has an IC50 (MDA-MB-231) of over 10 µM and an IC50 (MCF7) of over 10 µM.

With COc1ccc(/C=C/C(=O)c2cc(OC)c(OC)c(OC)c2)cc1 the IC50 (MDA-MB-231) was 6.5 µM and the IC50 (MCF7) was 0.71 µM.

In the case of O=C1CC(c2ccc(O)cc2)Oc2cc(O)cc(O)c21 (stereo not given), the Activity (MDA-MB-231) is reported as “inactive” and the Activity (MCF7) is reported as “inactive”.

Work on O=C(/C=C/c1ccc(O)cc1)c1cc(O)ccc1O yielded an IC50 (MDA-MB-231) of over 10 µM and an IC50 (MCF7) of over 10 µM.

For COc1cc(C(=O)/C=C/c2ccc(Cl)c(Cl)c2)cc(OC)c1OC, the IC50 (MDA-MB-231) was over 10 µM and the IC50 (MCF7) was 7 µM.

O=C(/C=C/c1ccc(O)cc1)c1c(O)cc(O)cc1O [4,2',4',6'-TETRAHYDROXYCHALCONE] was tested, and the IC50 (MDA-MB-231) was over 10 µM and the IC50 (MCF7) was over 10 µM.

With O=C(/C=C/c1ccc(O)cc1)c1ccc(O)cc1O [ISOLIQUIRITIGENIN] the IC50 (MDA-MB-231) was over 10 µM and the IC50 (MCF7) was over 10 µM.

COc1ccc(C(=O)/C=C/c2ccc(O)c(OC)c2)c(OC)c1 gave an IC50 (MDA-MB-231) of over 10 µM and an IC50 (MCF7) of 3.1 µM.

O=C(/C=C/c1ccc(O)cc1)c1ccc(O)c(O)c1O was tested, and the IC50 (MDA-MB-231) was over 10 µM and the IC50 (MCF7) was over 10 µM.

With COc1ccc2c(c1)OC(c1ccccc1)CC2=O (stereo not given) the Activity (MDA-MB-231) was “inactive” and the Activity (MCF7) was “inactive”.

O=C(/C=C/c1ccc(O)cc1)c1cc(Cc2c(O)ccc(C(=O)/C=C/c3ccc(O)cc3)c2O)c(O)cc1O showed an IC50 (MDA-MB-231) of over 10 µM and an IC50 (MCF7) of over 10 µM.
